What was measured:
Conditions in all cases: Homo sapiens
A549 [1] = assay: Inhibitory concentration (resynthesized pure material) against TNF-alpha induced apoptosis of A549 cells; assay type: functional, cell-based
A549 [2] = assay: Inhibitory concentration (solid phase) against TNF-alpha induced apoptosis of A549 cells; assay type: functional, cell-based
A549 [3] = assay: Inhibitory concentration (resynthesized pure material) against TNF-alpha induced apoptosis of A549 cells at 20 uM; assay type: functional

Row | IC50 (A549 [1]) [µM] | IC50 (A549 [2]) [µM] | SMILES | inhibition at 20 µM (A549 [3]) [%]
1 | 10.1 |  | CCCCCN(CCCCC)C(=O)[C@@H]1C[C@H](Oc2ccc(C[C@H](NC(=O)C(CC)CC)C(N)=O)cc2)CN1C(=O)c1cnc2ccccc2c1 | 
2 | 8.1 | 11.1 | CCCCCN(CCCCC)C(=O)[C@@H]1C[C@H](Oc2ccc(C[C@H](NC(=O)Cc3ccccc3)C(N)=O)cc2)CN1C(=O)c1cnc2ccccc2c1 | 
3 | 12.9 | 15.4 | CCCCCN(CCCCC)C(=O)[C@@H]1C[C@H](Oc2ccc(C[C@H](NC(=O)c3cnc4ccccc4c3)C(N)=O)cc2)CN1C(=O)c1cnc2ccccc2c1 | 
4 |  |  | CCCCCN(CCCCC)C(=O)[C@@H]1C[C@H](Oc2ccc(C[C@H](NC(=O)CC)C(N)=O)cc2)CN1C(=O)c1cnc2ccccc2c1 | 35

— ChEMBL document CHEMBL1146628, “Identification of TNF-alpha inhibitors from a split-pool library based on a tyrosine-proline peptidomimetic scaffold” (Bioorg Med Chem Lett, 2003)
